Assay results as given in US20020102533A1, “Hepatitis C protease exosite for inhibit or design” (priority 2000, published 2002).
“Also recorded” adds a separate entry of the source. Read-outs that look alike come from different tables or passages of the source. Where a SMILES comes first, the peptide text is derived from it. [ ]: non-standard residue; d: D form. Dip = N[C@H](C(=O)O)C(c1ccccc1)c1ccccc1; Cha = N[C@@H](CC1CCCCC1)C(=O)O

Experiments:
[1] = target: T1, HCV NS3 protease, genotype 1a (Hepatitis C virus genotype 1a, UniProt P26664); type: biochemical; settings: P6-P3′ ester substrate, NS4a=0, relative to controls without Q9692
T1 construct: NS3 protease catalytic domain (amino acids 1 to 192); MGAQH expression leader (5 aa), or alternatively the 15 aa His tag […]; made in house; host or cells: E. coli BL21 (DE3)

[2] = target: T2, HCV protease (NS3) (Hepatitis C virus genotype 1a, UniProt P26664); type: binding
T2 construct: NS3 protease catalytic domain (amino acids 1 to 192); MGAQH expression leader (5 aa), or alternatively the 15 aa His tag MRGSHHHHHHMGAQH; made in house; host or cells: E. coli BL21 (DE3)
Description: Intrinsic fluorescence studies: Assays were conducted in 0.5 ml fluorescent cuvettes (0.4 ml total volume). […] Fluorescence spectra were obtained by exiting at 280 nm (10 nm slit) and scanning the emission profile from 300 to 400 nm (10 nm slit) at 1 nm s^−1.
Fluorescence spectrum of HCV protease (0.45 μM) in 50 mM Tris buffer, pH 7.0, containing 15% glycerol, and 0.10% maltoside were measured over a range of 300-400 nm using an excitation wavelength of 280 nm. Both excitation and emission slit widths were 10 nm and the scan rate was 1.0 nm sec^−1.

[3] = target: T1, HCV NS3 protease, genotype 1a; type: biochemical; settings: P6-P3′ amide substrate
Description: Endpoint HPLC based HCV protease assay: HCV protease (5 nM) was incubated in 50 mM Tris pH 7.5, 0.1% maltoside, 5 mM DTT and appropriate amounts of glycerol, NS4A peptide, and substrate. Routine assays were 100 μl in volume containing 15% or 50% glycerol, 5.0 μM NS4A peptide and 5.0 μM substrate. Reactions were run at room temperature (˜22° C.) and quenched by the addition of 4 μl of 10% TFA before 10% of the substrate was consumed. Incubation times were 20 minutes for the ester substrate (Peptide Substrate A) and 80 minutes for the P6-P7′ amide substrate (Peptide Substrate B). […] Incubation times were 90 min. Samples, 50 μl, were injected onto an Hewlett Packard 1090 Liquid Chromatograph containing a Dynamax-60A C18 column. The column was eluted with a linear gradient from 10% acetonitrile to 45% acetonitrile in water. All solvents contained 0.1% TFA. A flow rate of 1 ml/min was used. […] The product peaks were detected by fluorescence excitation at 350 nm and emission at 500 nm.
Comparison of the effects of Q9692 on the hydrolysis of a P6-P3′ ester substrate (FIG. 2A) and a P6-P7′ substrate (FIG. 2B) and P6-P3′ amide substrate (FIG. 2C) were determined. […] Hydrolysis products were quantitated by measuring fluorescent peak areas following HPLC and detection by excitation at 350 nm and measuring emission at 500 nm. […]

[4] = target: T3, HCV protease (Hepatitis C virus genotype 1b, UniProt P26663); settings: read-out: inhibitor of HCV protease (potency); 13 residue substrate spanning P6-P7′; cited from earlier work
[5] = target: T4, HCV protease 2A (Hepatitis C virus genotype 2a, UniProt P26660); assay: HCV protease type 2a, 13-mer substrate; type: biochemical
T4 construct: the catalytic domains of types 1b, 1J and 2a have also been examined
Excerpt: It is understood that other forms of HCV protease may be used in an assay for the determination of inhibitors. The present invention has disclosed the 1A form of HCV protease, however, the catalytic domains of types 1b, 1J and 2a have also been examined, as well as, the full-length version of form 1b. Evidence for the exosite exists in each case. Activation by Q9692 follows the trend of activation by NS4a. Forms of the enzyme that are more sensitive to NS4a display greater stimulation by Q9692 than forms that are less sensitive. In rank order sensitivity is 1J, 1B, 1A, and 2A. The catalytic activity of 2A toward the 9-mer substrate is enhanced by only 1.5-fold at 4 μM Q9692 and becomes inhibited by Q9692 at concentrations greater than 20 μM. […] Use of alternative forms of the HCV protease is relevent to development of an inexpensive and easy continous assay.

[6] = target: T3, HCV protease; settings: substrate Ac-[…](Edans)—NH2; cited from earlier work

Compound: CC(=O)N[C@@H](CC(=O)O)C(=O)N[C@@H](CCC(=O)O)C(=O)N[C@H](C(=O)N[C@@H](CCC(=O)O)C(=O)N[C@@H](CC1CCCCC1)C(=O)N[C@@H](CS)C(=O)O)C(c1ccccc1)c1ccccc1 [Q9692, Ac-Asp-Glu-Dpa-Glu-Cha-Cys—OH] (Ac-DE[Dip]E[Cha]C-OH)
- relative activity of the protease [1]: ~1
- further increase in intrinsic fluorescence ([2]; 5.0 μM added after 12.5 μM NS4a): 70%
- effect on fluorescence spectrum ([2]; in the absence of NS4a): little effect
- effect on intrinsic fluorescence ([2]; in the presence of NS4a): near doubling of intrinsic fluorescence; also recorded: nearly doubles the intrinsic fluorescence; also recorded: large increase in fluorescence
- inhibition pattern [3]: mixed inhibition
- Ki [4]: 50 nM
- Ki [5]: ~250 nM
- Ki [6]: 50 nM
